Measured values reported in patent publication US7052910B2, “Skeletal cell model to screen anti-diabetic compounds” (Council of Scientific and Industrial Research, priority 2001, dated 2006).

Legend:
IRS-1 = assay: Tyrosine phosphorylation and expression of IRS-1 in C2C12 myotubes differentiated in serum free medium without (MF) or with chronic insulin (MFI); immunoblot; format: cell-based, mouse
Method: (§1) FIG. 5 represents the effect of insulin stimulation on control and chronically insulin-differentiated cells: Cells were stimulated with 100 nm of insulin for 5 min. Cell lysates were run on sodium dodecyl sulphate-7%-polyacrylamide gel electrophoresis (SDS-7%-PAGE) and were immunoblotted with antiphosphotyrosine antibody (A) or anti-IRS-1 antibody (C) or anti-IR-β antibody (E). Cell lysates were immunoprecipitated with antibodies to IRS-1 (B) or IR-β (D) and immunoblotted (IB) with antiphosphotyrosine antibody; and FIG. 6 represents the effect of pioglitazone on tyrosine phosphorylation of IRS-1 and IR-β: Pioglitazone was added at 50 μM concentration during the last day of differentiation for 24 hr. Then, the cells were stimulated with 100 nm of insulin for 5 min. Cell lysate were immunoblotted (IB) with antiphosphotyrosine antibody (A) or α-IRS-1 (B). Cell lysates of the samples prepared the same immunoprecipitated (IP) with antibodies and immunoblotted (IB) with antiphosphotyrosine (C) or anti-IR-β (D) antibodies. C2C12 cells were grown in DMEM (Dulbecco's Modified Eagle Medium) containing 15% FCS (fetal calf serum). The cells were differentiated in serum free medium in the absence or chronic presence of 100 nm insulin. After three days the differentiation was complete. […]

IR-β = assay: Tyrosine phosphorylation and expression of IR-β in C2C12 myotubes differentiated in serum free medium without (MF) or with chronic insulin (MFI); immunoprecipitation and immunoblot; format: cell-based, mouse
Method: as §1

Substance: insulin
- ability of IRS-1 to undergo tyrosine phosphorylation in response to insulin (IRS-1; C2C12 cells differentiated in chronic presence of 100 nm insulin (MFI), FIG. 5B): impaired
- tyrosine phosphorylation of IRS-1 (Mr 160–170 kDa protein) (IRS-1; control (MF) C2C12 myotubes stimulated with 100 nm insulin for 5 min, FIG. 5A): insulin stimulated tyrosine phosphorylation
- expression of IR-β (IR-β; C2C12 cells differentiated in chronic presence of 100 nm insulin, FIG. 5E): reduced
- tyrosine phosphorylation levels of IR (IR-β; MFI (chronic 100 nm insulin) versus MF differentiated C2C12 cells, FIG. 5D): Severe reduction
